# In ChEMBL document CHEMBL1201862, “PubChem BioAssay data set” (2004):
#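 Where inhibition never reached the appropriate level, the endpoint shown equals the highest concentration tested. Otherwise, values were interpolated linearly from a five-concentration, 48-hour dose response in 96-well plates. GI50 marks 50% less growth.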 Active and inactive are the calls of the source. No stated cut-off is given here; in the data, active = GI50 up to about 1.1 µM and inactive = higher.
# Tests used:
# Experiment in all cases: NCI tumour cell line growth inhibition, 48 h
# SF-268 = test system: SF-268
# HCT-15 = test system: HCT-15
# PC-3 = test system: PC-3
# RPMI-8226 = test system: RPMI-8226
# SNB-75 = test system: SNB-75
# LOX IMVI = test system: LOX IMVI
# MCF7 = test system: MCF7
# UACC-257 = test system: UACC-257
# HCT-116 = test system: HCT-116
# NCI/ADR-RES = test system: NCI/ADR-RES
# U-251 = test system: U-251
# UO-31 = test system: UO-31
# SK-OV-3 = test system: SK-OV-3
# OVCAR-3 = test system: OVCAR-3
# SN12C = test system: SN12C
# KM12 = test system: KM12
# SF-539 = test system: SF-539
# 786-0 = test system: 786-0
# SK-MEL-28 = test system: SK-MEL-28
# MDA-MB-435 = test system: MDA-MB-435
# CCRF-CEM = test system: CCRF-CEM
# K562 = test system: K562
# T47D = test system: T47D
# MDA-N = test system: MDA-N
# A549 = test system: A549
# A498 = test system: A498
# SK-MEL-5 = test system: SK-MEL-5
# MDA-MB-231 = test system: MDA-MB-231
# HOP-62 = test system: HOP-62
# OVCAR-5 = test system: OVCAR-5
# MOLT-4 = test system: MOLT-4
# RXF 393 = test system: RXF 393
# SW-620 = test system: SW-620
# TK-10 = test system: TK-10
# UACC-62 = test system: UACC-62
# NCI-H226 = test system: NCI-H226
# M14 = test system: M14
# SK-MEL-2 = test system: SK-MEL-2
# ACHN = test system: ACHN
# HOP-92 = test system: HOP-92
# CAKI-1 = test system: CAKI-1
# COLO 205 = test system: COLO 205
# HCC 2998 = test system: HCC 2998
# Hs-578T = test system: Hs-578T
# SF-295 = test system: SF-295
# OVCAR-4 = test system: OVCAR-4
# SNB-19 = test system: SNB-19
# DU-145 = test system: DU-145
# EKVX = test system: EKVX
# Malme-3M = test system: Malme-3M
# HT-29 = test system: HT-29
# NCI-H460 = test system: NCI-H460
# OVCAR-8 = test system: OVCAR-8
# HL-60 = test system: HL-60
# SR = test system: SR
# NCI-H23 = test system: NCI-H23
# NCI-H522 = test system: NCI-H522
# IGROV-1 = test system: IGROV-1
smiles,measurement,setting,value
COc1cccc([C@@H]2C/C(=N\NC(=O)C(=O)N[C@@H](C)c3ccccc3)c3cc4c(cc3N2)OCO4)c1,GI50,SF-268,29.9 µM (inactive)
same,GI50,HCT-15,27.4 µM
same,GI50,PC-3,98.6 µM (inactive)
same,GI50,RPMI-8226,30.5 µM (inactive)
same,GI50,SNB-75,22.5 µM (inactive)
same,GI50,LOX IMVI,80 µM (inactive)
same,GI50,MCF7,8.32 µM (inactive)
same,GI50,UACC-257,15.8 µM (inactive)
same,GI50,HCT-116,22.4 µM (inactive)
same,GI50,NCI/ADR-RES,13.9 µM (inactive)
same,GI50,U-251,> 100 µM (inactive)
same,GI50,UO-31,> 100 µM (inactive)
same,GI50,SK-OV-3,> 100 µM (inactive)
same,GI50,OVCAR-3,30.1 µM (inactive)
same,GI50,SN12C,42 µM (inactive)
same,GI50,KM12,6.89 µM (inactive)
same,GI50,SF-539,23.8 µM (inactive)
same,GI50,786-0,82 µM (inactive)
same,GI50,SK-MEL-28,> 100 µM (inactive)
same,GI50,MDA-MB-435,2.28 µM (inactive)
same,GI50,CCRF-CEM,28.1 µM (inactive)
same,GI50,K562,13.2 µM (inactive)
same,GI50,T47D,> 100 µM (inactive)
same,GI50,MDA-N,7.19 µM (inactive)
same,GI50,A549,43.9 µM (inactive)
same,GI50,A498,47.4 µM (inactive)
same,GI50,SK-MEL-5,3.06 µM (inactive)
same,GI50,MDA-MB-231,67.5 µM (inactive)
same,GI50,HOP-62,69.5 µM (inactive)
same,GI50,OVCAR-5,> 100 µM (inactive)
same,GI50,MOLT-4,21 µM (inactive)
same,GI50,RXF 393,> 100 µM (inactive)
same,GI50,SW-620,16 µM (inactive)
same,GI50,TK-10,> 100 µM (inactive)
same,GI50,UACC-62,17.1 µM (inactive)
same,GI50,NCI-H226,10.5 µM (inactive)
same,GI50,M14,34.1 µM (inactive)
same,GI50,SK-MEL-2,85.9 µM (inactive)
same,GI50,ACHN,> 100 µM (inactive)
same,GI50,HOP-92,> 100 µM (inactive)
same,GI50,CAKI-1,48.1 µM (inactive)
same,GI50,COLO 205,25.5 µM (inactive)
same,GI50,HCC 2998,50.9 µM (inactive)
same,GI50,Hs-578T,19.7 µM (inactive)
same,GI50,SF-295,36.6 µM (inactive)
same,GI50,OVCAR-4,74 µM (inactive)
same,GI50,SNB-19,35 µM (inactive)
same,GI50,DU-145,> 100 µM (inactive)
same,GI50,EKVX,65.9 µM (inactive)
COc1ccccc1N1CCN(Cn2c(=O)oc3cccnc32)CC1,GI50,SF-268,> 100 µM (inactive)
same,GI50,HCT-15,> 100 µM
same,GI50,PC-3,> 100 µM (inactive)
same,GI50,RPMI-8226,> 100 µM (inactive)
same,GI50,SNB-75,30 µM (inactive)
same,GI50,LOX IMVI,> 100 µM (inactive)
same,GI50,MCF7,> 100 µM (inactive)
same,GI50,UACC-257,> 100 µM (inactive)
same,GI50,HCT-116,56.4 µM (inactive)
same,GI50,NCI/ADR-RES,> 100 µM (inactive)
same,GI50,Malme-3M,> 100 µM (inactive)
same,GI50,U-251,90.2 µM (inactive)
same,GI50,UO-31,> 100 µM (inactive)
same,GI50,SK-OV-3,> 100 µM (inactive)
same,GI50,OVCAR-3,> 100 µM (inactive)
same,GI50,HT-29,> 100 µM (inactive)
same,GI50,NCI-H460,> 100 µM (inactive)
same,GI50,OVCAR-8,> 100 µM (inactive)
same,GI50,SF-539,> 100 µM (inactive)
same,GI50,HL-60,> 100 µM (inactive)
same,GI50,786-0,> 100 µM (inactive)
same,GI50,SK-MEL-28,> 100 µM (inactive)
same,GI50,MDA-MB-435,> 100 µM (inactive)
same,GI50,CCRF-CEM,66.7 µM (inactive)
same,GI50,K562,> 100 µM (inactive)
same,GI50,T47D,> 100 µM (inactive)
same,GI50,SR,40.3 µM (inactive)
same,GI50,MDA-N,> 100 µM (inactive)
same,GI50,A549,> 100 µM (inactive)
same,GI50,A498,> 100 µM (inactive)
same,GI50,SK-MEL-5,> 100 µM (inactive)
same,GI50,MDA-MB-231,> 100 µM (inactive)
same,GI50,NCI-H23,> 100 µM (inactive)
same,GI50,NCI-H522,> 100 µM (inactive)
same,GI50,HOP-62,> 100 µM (inactive)
same,GI50,OVCAR-5,> 100 µM (inactive)
same,GI50,MOLT-4,> 100 µM (inactive)
same,GI50,RXF 393,> 100 µM (inactive)
same,GI50,SW-620,36.4 µM (inactive)
same,GI50,TK-10,> 100 µM (inactive)
same,GI50,M14,> 100 µM (inactive)
same,GI50,SK-MEL-2,> 100 µM (inactive)
same,GI50,IGROV-1,> 100 µM (inactive)
same,GI50,ACHN,> 100 µM (inactive)
same,GI50,HOP-92,> 100 µM (inactive)
same,GI50,CAKI-1,> 100 µM (inactive)
same,GI50,HCC 2998,> 100 µM (inactive)
same,GI50,Hs-578T,> 100 µM (inactive)
same,GI50,SF-295,> 100 µM (inactive)
same,GI50,OVCAR-4,> 100 µM (inactive)
same,GI50,SNB-19,> 100 µM (inactive)
same,GI50,DU-145,> 100 µM (inactive)
same,GI50,EKVX,> 100 µM (inactive)
